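Five compound concentrations were applied to cells in 96-well plates for 48 hours; endpoints were derived by simple linear interpolation of the resulting dose-response curve. Abbreviation: GI50, concentration required for 50% inhibition of growth. Definition used: TGI = concentration required for complete inhibition of growth.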
Experiments:
Assay in all cases: NCI anticancer screen, dose series, 48 h
786-0 renal = test system: 786-0 renal
A498 renal = test system: A498 renal
A549 NSCLC = test system: A549 NSCLC
ACHN renal = test system: ACHN renal
BT-549 breast = test system: BT-549 breast
CAKI-1 renal = test system: CAKI-1 renal
CCRF-CEM leukemia = test system: CCRF-CEM leukemia
COLO 205 colon = test system: COLO 205 colon
DU-145 prostate = test system: DU-145 prostate
EKVX NSCLC = test system: EKVX NSCLC
HCC-2998 colon = test system: HCC-2998 colon
HCT-116 colon = test system: HCT-116 colon
HCT-15 colon = test system: HCT-15 colon
HL-60(TB) leukemia = test system: HL-60(TB) leukemia
HOP-62 NSCLC = test system: HOP-62 NSCLC
HOP-92 NSCLC = test system: HOP-92 NSCLC
HS 578T breast = test system: HS 578T breast
HT29 colon = test system: HT29 colon
IGROV1 ovarian = test system: IGROV1 ovarian
K-562 leukemia = test system: K-562 leukemia
KM12 colon = test system: KM12 colon
LOX IMVI melanoma = test system: LOX IMVI melanoma
M14 melanoma = test system: M14 melanoma
MALME-3M melanoma = test system: MALME-3M melanoma
MCF7 breast = test system: MCF7 breast
MDA-MB-231 breast = test system: MDA-MB-231 breast
MDA-MB-435 = test system: MDA-MB-435
MOLT-4 leukemia = test system: MOLT-4 leukemia
NCI-H226 lung = test system: NCI-H226 lung
NCI-H23 lung = test system: NCI-H23 lung
NCI-H460 lung = test system: NCI-H460 lung
NCI-H522 lung = test system: NCI-H522 lung
NCI/ADR-RES ovarian = test system: NCI/ADR-RES ovarian
OVCAR-3 ovarian = test system: OVCAR-3 ovarian
OVCAR-4 ovarian = test system: OVCAR-4 ovarian
OVCAR-5 ovarian = test system: OVCAR-5 ovarian
OVCAR-8 ovarian = test system: OVCAR-8 ovarian
PC-3 prostate = test system: PC-3 prostate
RPMI-8226 leukemia = test system: RPMI-8226 leukemia
RXF 393 renal = test system: RXF 393 renal
SF-268 CNS = test system: SF-268 CNS
SF-295 CNS = test system: SF-295 CNS
SF-539 CNS = test system: SF-539 CNS
SK-MEL-2 melanoma = test system: SK-MEL-2 melanoma
SK-MEL-28 melanoma = test system: SK-MEL-28 melanoma
SK-MEL-5 melanoma = test system: SK-MEL-5 melanoma
SN12C renal = test system: SN12C renal
SNB-19 CNS = test system: SNB-19 CNS
SNB-75 CNS = test system: SNB-75 CNS
SR leukemia = test system: SR leukemia
SW-620 colon = test system: SW-620 colon
T-47D breast = test system: T-47D breast
TK-10 renal = test system: TK-10 renal
U251 CNS = test system: U251 CNS
UACC-257 melanoma = test system: UACC-257 melanoma
UACC-62 melanoma = test system: UACC-62 melanoma
UO-31 renal = test system: UO-31 renal

Cc1n[nH]c(C)c1-c1c(C)n[nH]c1C
GI50 (786-0 renal): 2370 nM
TGI (786-0 renal): 6420 nM
GI50 (A498 renal): 1820 nM
TGI (A498 renal): 4120 nM
GI50 (A549 NSCLC): 1680 nM
TGI (A549 NSCLC): 4350 nM
GI50 (ACHN renal): 1520 nM
TGI (ACHN renal): 2880 nM
GI50 (BT-549 breast): 1970 nM
TGI (BT-549 breast): 4260 nM
GI50 (CAKI-1 renal): 1540 nM
TGI (CAKI-1 renal): 3130 nM
GI50 (CCRF-CEM leukemia): 1450 nM
TGI (CCRF-CEM leukemia): > 100000 nM
GI50 (COLO 205 colon): 1920 nM
TGI (COLO 205 colon): 4230 nM
GI50 (DU-145 prostate): 1990 nM
TGI (DU-145 prostate): 4130 nM
GI50 (EKVX NSCLC): 1930 nM
TGI (EKVX NSCLC): 4960 nM
GI50 (HCC-2998 colon): 1960 nM
TGI (HCC-2998 colon): 3820 nM
GI50 (HCT-116 colon): 1480 nM
TGI (HCT-116 colon): 3010 nM
GI50 (HCT-15 colon): 1830 nM
TGI (HCT-15 colon): 4530 nM
GI50 (HL-60(TB) leukemia): 2260 nM
TGI (HL-60(TB) leukemia): 6950 nM
GI50 (HOP-62 NSCLC): 2400 nM
TGI (HOP-62 NSCLC): 9110 nM
GI50 (HOP-92 NSCLC): 1170 nM
TGI (HOP-92 NSCLC): 2990 nM
GI50 (HS 578T breast): 2260 nM
TGI (HS 578T breast): 16900 nM
GI50 (HT29 colon): 2010 nM
TGI (HT29 colon): 4810 nM
GI50 (IGROV1 ovarian): 1800 nM
TGI (IGROV1 ovarian): 4300 nM
GI50 (K-562 leukemia): 1940 nM
TGI (K-562 leukemia): > 35600 nM
GI50 (KM12 colon): 1800 nM
TGI (KM12 colon): 3970 nM
GI50 (LOX IMVI melanoma): 1570 nM
TGI (LOX IMVI melanoma): 3060 nM
GI50 (M14 melanoma): 2010 nM
TGI (M14 melanoma): 5120 nM
GI50 (MALME-3M melanoma): 1700 nM
TGI (MALME-3M melanoma): 4050 nM
GI50 (MCF7 breast): 1660 nM
TGI (MCF7 breast): 3790 nM
GI50 (MDA-MB-231 breast): 1830 nM
TGI (MDA-MB-231 breast): 4530 nM
GI50 (MDA-MB-435): 1930 nM
TGI (MDA-MB-435): 4820 nM
GI50 (MOLT-4 leukemia): 2240 nM
TGI (MOLT-4 leukemia): > 27300 nM
GI50 (NCI-H226 lung): 1770 nM
TGI (NCI-H226 lung): 3970 nM
GI50 (NCI-H23 lung): 1740 nM
TGI (NCI-H23 lung): 3470 nM
GI50 (NCI-H460 lung): 1820 nM
TGI (NCI-H460 lung): 3850 nM
GI50 (NCI-H522 lung): 1660 nM
TGI (NCI-H522 lung): 3630 nM
GI50 (NCI/ADR-RES ovarian): 2190 nM
TGI (NCI/ADR-RES ovarian): 6160 nM
GI50 (OVCAR-3 ovarian): 1600 nM
TGI (OVCAR-3 ovarian): 3050 nM
GI50 (OVCAR-4 ovarian): 2280 nM
TGI (OVCAR-4 ovarian): 6380 nM
GI50 (OVCAR-5 ovarian): 2130 nM
TGI (OVCAR-5 ovarian): 4850 nM
GI50 (OVCAR-8 ovarian): 2090 nM
TGI (OVCAR-8 ovarian): 9790 nM
GI50 (PC-3 prostate): 1510 nM
TGI (PC-3 prostate): 4010 nM
GI50 (RPMI-8226 leukemia): 1870 nM
TGI (RPMI-8226 leukemia): 7010 nM
GI50 (RXF 393 renal): 1520 nM
TGI (RXF 393 renal): 3070 nM
GI50 (SF-268 CNS): 2280 nM
TGI (SF-268 CNS): 6910 nM
GI50 (SF-295 CNS): 1810 nM
TGI (SF-295 CNS): 3630 nM
GI50 (SF-539 CNS): 1730 nM
TGI (SF-539 CNS): 3350 nM
GI50 (SK-MEL-2 melanoma): 2320 nM
TGI (SK-MEL-2 melanoma): 5510 nM
GI50 (SK-MEL-28 melanoma): 1800 nM
TGI (SK-MEL-28 melanoma): 3490 nM
GI50 (SK-MEL-5 melanoma): 1740 nM
TGI (SK-MEL-5 melanoma): 3180 nM
GI50 (SN12C renal): 2210 nM
TGI (SN12C renal): 5820 nM
GI50 (SNB-19 CNS): 2060 nM
TGI (SNB-19 CNS): 5130 nM
GI50 (SNB-75 CNS): 1700 nM
TGI (SNB-75 CNS): 4430 nM
GI50 (SR leukemia): 1210 nM
TGI (SR leukemia): > 100000 nM
GI50 (SW-620 colon): 1870 nM
TGI (SW-620 colon): 4380 nM
GI50 (T-47D breast): 1910 nM
TGI (T-47D breast): 7090 nM
GI50 (TK-10 renal): 2890 nM
TGI (TK-10 renal): 7200 nM
GI50 (U251 CNS): 1640 nM
TGI (U251 CNS): 3760 nM
GI50 (UACC-257 melanoma): 2180 nM
TGI (UACC-257 melanoma): 5680 nM
GI50 (UACC-62 melanoma): 1560 nM
TGI (UACC-62 melanoma): 3420 nM
GI50 (UO-31 renal): 1310 nM
TGI (UO-31 renal): 2700 nM

Reference: PubChem BioAssay (NCI)
